Measurements taken from patent publication US11535599B2, “Benzisoxazole derivative” (Sumitomo Pharma Co., Ltd., priority 2020, dated 2022).

What was measured:
[1] = tested on: oxaliplatin chemotherapy-induced peripheral neuropathy model; test: Anti-allodynia effect in chemotherapy-induced peripheral neuropathy model (acetone test); format: in vivo, rat; conditions: Example 13 100 mg/kg oral once a day 17 times; duloxetine 30 mg/kg oral single
Text: As one of chemotherapy-induced peripheral neuropathy, sensory disturbance due to neuropathy caused by a platinating agent that is an anticancer agent such as cisplatin and oxaliplatin is known, and the symptom is difficult to be recovered even after the medication is discontinued. The therapeutic effect for sensory disturbance caused by repetitive administration of oxaliplatin was studied in the present test.
To male Crl: CD (SD) rats (7 weeks old) (CHARLES RIVER LABORATORIES JAPAN, INC.), oxaliplatin (5 mg/kg) was intraperitoneally administered for the two consecutive days in a week, totally 6 times, to prepare chemotherapy-induced peripheral neuropathy models. The compound of Example 13 (100 mg/kg) was repeatedly orally administered once a day, totally 17 times. […] In the acetone test, 0.1 mL of acetone was sprayed to the foot sole of the rat hind paw, and the reaction was evaluated according a scoring (Cold Score). When there was no reaction for 20 seconds after spraying acetone, Score 0 was recorded and the observation was stopped. When there was any reaction for the 20 seconds, the observation was continued until 40 seconds after spraying, and the score was recorded according to the evaluation scale. The acetone spray was done twice each for right and left hind paws, and the total score was calculated. […]

[2] = Shaking suspensions of crystalline forms in solvents (form conversion); format: physicochemical; conditions: shaking forms I-III in several kinds of solvents for 9-11 days
Procedure: Crystalline Example 13 of form III can be prepared by shaking a suspension of Example 13 in an organic solvent (e.g. ethanol, chloroform, acetonitrile, tetrahydrofuran, ethyl acetate, acetone, and tetrahydrofuran/heptane mixture (1:1)) at about 50° C. for 9-11 days. Or, it can be prepared by shaking a suspension of Example 13 in an organic solvent (e.g. acetonitrile, ethyl acetate, acetone, acetone/water mixture (1:1), and tetrahydrofuran/heptane mixture (1:1)) at about 25° C. for 9-11 days. Or, it can be prepared by shaking a suspension of a mixture of forms I and II of Example 13 in an organic solvent (e.g. ethanol, 2-propanol, chloroform, acetonitrile, tetrahydrofuran, ethyl acetate, acetone, and tetrahydrofuran/heptane mixture (1:1)) at about 50° C. for 9-11 days. Or, it can be prepared by shaking a suspension of a mixture of forms I and II of Example 13 in an organic solvent (e.g. 2-propanol, chloroform, acetonitrile, tetrahydrofuran, ethyl acetate, acetone, methanol/water mixture (1:1), 2-propanol/water mixture (1:1), acetone/water mixture (1:1), and tetrahydrofuran/heptane mixture (1:1)) at about 25° C. for 9-11 days. Or, it can be prepared by heating a solution of Example 13 in tert-butyl methyl ether at about 80° C. for about one hour, and leaving the solution to stand at room temperature for a day. […]

[3] = Thermogravimetric analysis (TGA); format: physicochemical; conditions: until melting temperature
Procedure: Thermogravimetric analysis: the thermogravimetric analysis (TGA) was carried out with a TGA instrument (TGA Q500, TA Instruments, New Castle, Del., USA). For each trial, about 1-10 mg of the solid sample was put in an open aluminium pot, and heated at a rate of 5-10° C./min under a nitrogen purge of 60 mL/min. The data analysis was carried out with Universal Analysis 2000 Version 4.1D (TA Instruments, New Castle, Del., USA).

[4] = Dynamic vapor adsorption (DVS), hygroscopicity; format: physicochemical; conditions: 0-90% RH, 25° C.
Procedure: Dynamic vapor adsorption: the hygroscopicity was evaluated with a dynamic vapor adsorption (DVS) instrument (IGAsorp, Hiden Isochema, Warrington, England) at room temperature. The water adsorption/desorption was studied as a function of relative humidity (RH) in the range of 0-90% at 25° C. The relative humidity in the chamber was made to increase by 10% RH, and the humidity was retained until the humidity state of the atmosphere and the weight variation of solid achieved equilibrium. The equilibration test was continued until the test was passed or failed 5 or 10 hours later. At this time point, RH increased by 10%, and the absorption process was repeated until the RH achieved to 90% RH and the humidity state achieved equilibrium. During the test, the moisture sorption was being monitored. For the desorption, the relative humidity was decreased in a similar manner to measure a perfect adsorption/desorption cycle. The cycle was repeated as appropriate. All the experiments were operated in dm/dt mode (weight variation over time) to determine each equilibrating endpoint. About 5-10 mg of the solid was used. The date analyses were carried out with Hisorp v4.02 (Hiden Isochema, Warrington, England).

[5] = Differential scanning calorimetry (DSC); format: physicochemical
Procedure: Differential scanning calorimetry: the thermal characteristic was evaluated with a differential scanning calorimetry (DSC) instrument (DSCQ1000, TA Instruments, New Castle, Del., USA). For each trial, about 1-10 mg of the solid sample was put in a standard aluminium pot aerated with a pinhole, and heated at a rate of 5-10° C./min under a nitrogen purge of 50 mL/min. The data analysis was carried out with Universal Analysis 2000 Version 4.1D (TA Instruments, New Castle, Del., USA).

With `CNCC[C@H](Oc1cccc2ccccc12)c1cccs1` [duloxetine, reference compound] the “Cold Score in acetone test” value [1] was “significantly lower Cold Score”.
In the case of `C[C@H](c1noc2ccccc12)S(N)(=O)=O` [Example 13 form III, (1R)-1-(1,2-benzoxazol-3-yl)ethane-1-sulfonamide], the “relative stability of crystalline forms” value [2] is reported as “most stable form”.
For `C[C@H](c1noc2ccccc12)S(N)(=O)=O` [Example 13 form I, (1R)-1-(1,2-benzoxazol-3-yl)ethane-1-sulfonamide], the “weight reduction in TGA” value [3] was “no weight reduction”, the “weight variation in DVS” value [4] was at most 1% and the “crystalline stability (DSC)” value [5] was “high”.
